Reference: patent publication US10087404B2, “Biological corrosion inhibitor for metals” (KURARAY CO., LTD., priority 2014, dated 2018)

Tests used:
[1] = system: strain Methanococcus maripaludis KA-1; experiment: Biological corrosion suppression test (eluted iron concentration from iron flake); type: cell-based; settings: 37° C., eluted iron measured at 7, 14, 21 and 28 days
Method: A biological corrosion suppression test of 3-Methylglutaraldehyde was performed as follows.
The liquid A was purged with a N2 gas for approximately 10 minutes and heated in an autoclave at 121° C. for 20 minutes, and then the liquid C, liquid E, liquid S, and liquid V were added thereto. 20 ml of the resulting mixture liquid was introduced into each of vials containing a sterilized iron flake (0.08 g of iron foil (10 mm length×10 mm width×0.1 mm thickness: Sigma-Aldrich 356808-G)). Each vial was purged with a gas (CO2 gas was mixed into N2 gas so as to give final concentration of 20% CO2 gas) for 5 minutes and then quickly closed with a butyl rubber cap, and the cap was fixed securely with an aluminum seal. After that, 0.5 ml (10^6 to 10^9 cells/ml) of the strain Methanococcus maripaludis KA-1 was added with a syringe, and 3-methylglutaraldehyde was further added so as to give the concentration shown in FIG. 1. Each vial was allowed to stand at 37° C., and the concentration of eluted iron was measured at 7 days, 14 days, 21 days, and 28 days for checking the progress of the biological corrosion of the iron flake. […]

[2] = Contact of acetal compound A with hydrochloric acid aqueous solution pH 4.0, analysed by gas chromatography; type: physicochemical; settings: nitrogen atmosphere
Method: Hydrochloric acid was added to distilled water to adjust the pH to 4.0, thereby preparing a hydrochloric acid aqueous solution. To 100 g of the hydrochloric acid solution was added 2.0 g of an acetal compound represented by the following formula:
[drawing 5] (hereinunder, referred to as acetal compound A), and the mixture was stirred at 80° C. under nitrogen atmosphere. After 1 hour, a part was taken and analyzed by a gas chromatography. As a result, it was confirmed that 97.2% of the acetal compound A was consumed and 3-methylglutaraldehyde was produced at 82.6%. [Conditions of Gas Chromatography]
Hydrochloric acid was added to distilled water to adjust the pH to 4.0, thereby preparing a hydrochloric acid aqueous solution. To 100 g of the hydrochloric acid solution was added 2.0 g of the acetal compound A, and the mixture was stirred at 30° C. under nitrogen atmosphere. After 50 hours, a part was taken and analyzed by a gas chromatography in the same manner as in Example 3. As a result, it was confirmed that 52.5% of the acetal compound A was consumed and 3-methylglutaraldehyde was produced at 47.3%.

| acetal compound A consumed ([2]; hydrochloric acid aqueous solution pH 4.0, 30° C., after 50 hours) [%] | acetal compound A consumed ([2]; hydrochloric acid aqueous solution pH 4.0, 80° C., after 1 hour) [%] | SMILES | addition concentration at which the concentration of eluted iron was suppressed to a sufficiently low level [1] [ppm] |
| --- | --- | --- | --- |
|  |  | CC(CC=O)CC=O [3-methylglutaraldehyde] | 1 |
|  |  | O=CCCCC=O [glutaraldehyde, reference compound] | 100 |
| 52.5 | 97.2 | CC(CC=O)CC1OCCO1 (stereo not shown) [acetal compound A] |  |
